Reference: publication PMC5071873, “The Effects of Puerarin on Rat Ventricular Myocytes and the Potential Mechanism” (Scientific Reports, 2016)

Legend:
Type in all cases: cell-based
[1] = biological target: T1, IKs (Rattus norvegicus, UniProt Q9Z0N7); assay: Whole-cell recording of IKs on rat ventricular myocytes; details: puerarin 100 μM
T1 construct: endogenous in cells; host or cells: isolated adult rat ventricular myocytes
Procedure: (§1) The Tyrode’s solution contained (mM): 126 NaCl, 5.4 KCl, 1.8 CaCl2, 1 MgCl2, 0.33 NaH2PO4, 10 HEPES and 10 glucose, pH 7.4 (adjusted with NaOH). The Ca^2+-free Tyrode’s solution was prepared by removing CaCl2 from the Tyrode’s solution. The Kreb’s solution used for cell storage contained (mM): 70 glutamic acid, 30 KCl, 15 taurine, 0.5 MgCl2, 10 KH2PO4, 0.5 EGTA, 10 HEPES, 10 glucose, and 1% albumin, pH 7.4 (adjusted with KOH). The enzyme solution used for the rat cardiomyocyte isolation contained 0.08 g/L collagenase (type II) and 1.0 g/L BSA in Kreb’s solution. For action potential recording on cardiomyocyte, the pipette solution contained (mM): 100 potassium aspartate, 30 KCl, 1 MgCl2, 5 Mg-ATP, 5 EGTA, 5 HEPES, pH 7.3 (adjusted with KOH); the Tyrode’s solution was used as the standard bath solution. For whole-cell recording of IKs on myocytes, the pipette solution contained (mM): 125 potassium aspartate, 20 KCl, 1 MgCl2, 5 Mg-ATP, 10 EGTA, 5 HEPES, pH 7.3 (adjusted with KOH); the bath solution contained (mM): 132 NaCl, 4 KCl, 1.8 CaCl2, 1.2 MgCl2, 10 HEPES, 5 glucose, pH 7.4 (adjusted with NaOH). […]
(§2) Cell suspensions were transferred into a chamber on the stage of a Nikon Eclipse Ti inverted microscope (Tokyo, Japan). […] The IK1 was calculated as the difference between the peak inward current and the holding current level. […]

[2] = biological target: T2, Kv7.1 (Homo sapiens, UniProt P51787); assay: Single-channel inside-out patch clamp recording of Kv7.1; details: puerarin 100 μM, inside-out, intracellular side
T2 construct: expressed in transfected cells; host or cells: HEK293
Procedure: as §1
Single-channel activity was recorded at a series of holding levels ranging from 10 mV of 50 mV. […] Single-channel events were listed and analysed by pclampfit 9.0 (single-channel search-in-analyse function). […]

[3] = biological target: T3, Kir2.3 (Homo sapiens, UniProt P48050); assay: Whole-cell patch clamp of Kir2.3 currents (ramp voltage protocol) in transfected HEK-293 cells
T3 sequence (P48050 1-445): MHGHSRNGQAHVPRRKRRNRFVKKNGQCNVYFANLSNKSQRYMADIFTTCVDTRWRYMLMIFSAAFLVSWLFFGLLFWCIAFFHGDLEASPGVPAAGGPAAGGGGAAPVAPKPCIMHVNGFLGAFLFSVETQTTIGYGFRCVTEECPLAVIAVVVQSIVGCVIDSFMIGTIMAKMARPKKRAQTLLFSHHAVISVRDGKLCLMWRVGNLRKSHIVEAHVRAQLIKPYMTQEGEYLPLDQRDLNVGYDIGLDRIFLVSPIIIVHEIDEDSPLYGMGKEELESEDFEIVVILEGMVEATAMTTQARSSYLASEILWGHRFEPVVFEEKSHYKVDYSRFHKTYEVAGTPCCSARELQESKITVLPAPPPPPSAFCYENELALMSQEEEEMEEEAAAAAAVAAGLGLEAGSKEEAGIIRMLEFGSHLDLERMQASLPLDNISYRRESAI
Procedure: as §1, §2

## O=c1c(-c2ccc(O)cc2)coc2c([C@@H]3O[C@H](CO)[C@@H](O)[C@H](O)[C@H]3O)c(O)ccc12 [Puerarin, 8-c-glucoside of daidzein]
[1]
  effect on forskolin-activated IKs current in rat cardiac myocytes: antagonized such activation effect
[2]
  open probability of Kv7.1 channel: significantly reduced
[3]; 10 μM, 100 μM, 1 mM
  effect on Kir2.3 currents at low concentrations: less effect
[3]; non-linear Hill fit
  Hill coefficient, inhibition of Kir2.3: 0.984
